{"source": "paper PMC7044277", "about": "(Nature Communications, 2020)", "type_in_all_cases": "cell-based", "key": {"[1]": {"target": "T1, 320 non-olfactory GPCRs (Homo sapiens, UniProt P48146)", "T1 construct": "expressed in transfected cells; host or cells: HTLA cells", "T1 sequence (P48146 whole entry)": "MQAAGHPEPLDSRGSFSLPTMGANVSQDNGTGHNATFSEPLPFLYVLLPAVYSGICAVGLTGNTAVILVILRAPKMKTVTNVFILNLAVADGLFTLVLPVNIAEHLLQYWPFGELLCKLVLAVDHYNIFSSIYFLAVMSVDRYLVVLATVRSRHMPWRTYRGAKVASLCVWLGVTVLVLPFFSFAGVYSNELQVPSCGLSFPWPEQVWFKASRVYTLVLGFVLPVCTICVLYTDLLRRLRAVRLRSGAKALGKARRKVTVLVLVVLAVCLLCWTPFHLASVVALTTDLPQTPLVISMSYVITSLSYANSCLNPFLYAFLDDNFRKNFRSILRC", "conditions": "receptor NPBW2; replicate values, Fig_4g"}, "[2]": {"target": "T2, 320 non-olfactory GPCRs (Homo sapiens, UniProt Q8IZF4)", "T2 construct": "expressed in transfected cells; host or cells: HTLA cells", "T2 sequence (Q8IZF4 22-528)": "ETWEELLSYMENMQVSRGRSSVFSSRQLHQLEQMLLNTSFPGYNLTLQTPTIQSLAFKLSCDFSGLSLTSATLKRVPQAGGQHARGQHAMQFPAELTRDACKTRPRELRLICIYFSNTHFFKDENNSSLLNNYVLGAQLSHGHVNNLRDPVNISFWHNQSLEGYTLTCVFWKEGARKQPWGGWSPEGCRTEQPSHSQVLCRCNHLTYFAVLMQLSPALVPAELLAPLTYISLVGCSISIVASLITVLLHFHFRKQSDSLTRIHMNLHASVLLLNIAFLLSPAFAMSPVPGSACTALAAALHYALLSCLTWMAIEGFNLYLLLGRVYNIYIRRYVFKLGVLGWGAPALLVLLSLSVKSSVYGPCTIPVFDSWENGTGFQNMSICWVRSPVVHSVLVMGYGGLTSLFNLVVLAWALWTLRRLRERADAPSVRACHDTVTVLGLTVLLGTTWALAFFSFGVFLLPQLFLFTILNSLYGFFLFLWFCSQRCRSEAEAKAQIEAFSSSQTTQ"}, "[3]": {"target": "T3, 320 non-olfactory GPCRs (Homo sapiens, UniProt Q8TDS5)", "T3 construct": "expressed in transfected cells; host or cells: HTLA cells", "T3 sequence (Q8TDS5 whole entry)": "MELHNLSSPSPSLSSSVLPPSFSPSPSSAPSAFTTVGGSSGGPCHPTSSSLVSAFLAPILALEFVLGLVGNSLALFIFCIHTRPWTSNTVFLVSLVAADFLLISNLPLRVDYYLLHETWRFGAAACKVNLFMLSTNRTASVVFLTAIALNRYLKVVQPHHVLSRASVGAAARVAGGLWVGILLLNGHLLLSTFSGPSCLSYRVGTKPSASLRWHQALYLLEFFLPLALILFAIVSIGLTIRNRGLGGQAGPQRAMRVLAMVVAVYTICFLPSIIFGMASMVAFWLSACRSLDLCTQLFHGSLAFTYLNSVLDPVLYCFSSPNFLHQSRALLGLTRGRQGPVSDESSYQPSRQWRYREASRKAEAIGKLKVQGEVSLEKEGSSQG", "conditions": "receptor OXER1; replicate values, Fig_4g"}, "[4]": {"target": "T4, 320 non-olfactory GPCRs (Homo sapiens, UniProt Q92847)", "T4 construct": "expressed in transfected cells; host or cells: HTLA cells", "T4 sequence (Q92847 whole entry)": "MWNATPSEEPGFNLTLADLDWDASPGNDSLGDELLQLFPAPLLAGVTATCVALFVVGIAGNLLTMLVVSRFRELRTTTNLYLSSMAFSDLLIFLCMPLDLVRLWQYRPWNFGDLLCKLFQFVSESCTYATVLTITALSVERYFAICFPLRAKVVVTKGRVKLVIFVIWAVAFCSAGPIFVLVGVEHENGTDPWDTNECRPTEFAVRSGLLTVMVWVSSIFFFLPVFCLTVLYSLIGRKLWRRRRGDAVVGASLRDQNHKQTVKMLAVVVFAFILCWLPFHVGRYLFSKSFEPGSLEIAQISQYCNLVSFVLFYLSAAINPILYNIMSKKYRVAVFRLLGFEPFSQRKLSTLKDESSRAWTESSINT"}}, "note": "“And” between values parts separate entries of the source, which are not always exact repeats. Identical values can stand only once.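 For Fold of Basal in this document: compound tested at 1 µM final concentration.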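 For GPCRome agonism screen response in this document: fold over basal response of each receptor without drug.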", "data": [{"smiles": "CCOc1cccc2cc(C(C)NCC3(O)CCCCC3)oc12", "note": "(stereo not shown) [O4LE6]", "values": [{"measurement": "GPCRome agonism screen response", "setting": "[1]", "result": "0.5262 and 0.8272 and 1.363 and 1.562"}, {"measurement": "Fold of Basal", "setting": "[2]", "result": "1.8988 and 1.9 and 1.379"}, {"measurement": "GPCRome agonism screen response", "setting": "[3]", "result": "0.5177 and 0.9727 and 1.432 and 1.135"}, {"measurement": "Fold of Basal", "setting": "[4]", "result": "0.8362 and 0.6901 and 0.8172 and 0.8114"}]}]}
